Measurements: patent publication US20030134774A1, “Methods for inhibiting cardiac disorders” (priority 2001, published 2003)

How the values were obtained:
cardiomyocytes [1] = assay: TUNEL assay of apoptosis in cardiomyocyte cultures; format: cell-based, rat; conditions: 500 μM, 24 hr
Description: rPMT increases H2O2-induced apoptosis in cardiomyocyte cultures. Cells were treated without or with rPMT (400 ng/ml) for 24 hr followed by H202 (500 μM) for 24 hr. The percentage of cells undergoing apoptosis was measured by TUNEL assay as described in Methods below. Data are from a single experiment and are representative of results obtained on 3 separate culture preparations.
TUNEL staining was performed for detection of apoptotic cells according to manufacturer's instructions (Boehringer). Approximately 500 cardiomyocytes were imaged by fluorescence microscopy and the number of cells that scored TUNEL-positive is presented as a percentage of total.

cardiomyocytes [2] = assay: Tolerance of cardiomyocytes to prolonged incubation with inhibitor; conditions: prolonged (24 hr) incubations

Row | Compound | apoptosis (TUNEL) (cardiomyocytes [1]) | tolerance of cardiomyocytes to the inhibitor (cardiomyocytes [2])
1 | OO [H202, reference compound] | induces apoptosis | 
2 | CC(=O)c1c(O)c(C)c(O)c(Cc2c(O)c3c(c(C(=O)/C=C/c4ccccc4)c2O)OC(C)(C)C=C3)c1O [rottlerin] |  | do not tolerate
